Laboratory results: patent US11229675B2, “Therapeutic peptides for excitatory neurotoxicity-related injuries” (Biocells (Beijing) Biotech Co., Ltd., priority 2016, dated 2022)
Several values for one entry are separate records, joined by “and”; a condition that tells them apart may be missing. Identical values can stand only once. Where no end group is shown, it is not given here.

Key:
MCAO model rats [1] = assay: Cerebral infarction volume (TTC staining) in MCAO model rats; conditions: rat, in vivo
Procedure: The focal cerebral ischemia-reperfusion model was prepared according to the reversible middle cerebral artery occlusion (MCAO) suture method proposed by Longa with modifications in view of the anatomical structure of the rat brain. The rats were anesthetized by intraperitoneal administration of 10% chloral hydrate at a dose of […]. After anesthetization, a cut was created at the cervical midline, and the common carotid artery (CCA), external carotid artery (ECA) and pterygopalatine artery were exposed. The head portion (0.5 cm) of a monofilament nylon fishing line (0.26 mm) was coated with paraffin and a mark was made at 20 mm. All rats were inserted through the right CCA incision, and the pterygopalatine artery was temporarily clamped to prevent mis-insertion. The length of the occlusion line was about 18-20 mm from the bifurcation of CCA depending on the animal's weight, thereby occluding middle cerebral artery on the right side. The skin was then sewed, and the tail end of the occlusion line was partially fixed to the skin. After a period of ischemia for 2 hours, the occlusion line was carefully pulled out to form a reperfusion. The procedure steps for the sham control were the same as the surgery group, except for insertion of a nylon fishing line. The body temperature was maintained at 37±0.5° C. during the ischemia period and 2 h after reperfusion.
The used animals were male adult SD rats (Vittalia) of SPF grade with body weight of 220-250 g.
No drugs were administered to the normal group and the sham group.
The rats were sacrificed by decapitation after scoring. The brain tissues were quickly removed and placed in a refrigerator at −20° C. After 10 minutes, the tissues were placed in a room temperature environment. The brains were placed in a rat brain section mold. After the olfactory bulb, cerebellum and low brain stem were removed, the brains were coronally cut five times at 2 mm thickness as shown in the profile to obtain six continuous raw coronal slices. Then, the brain sections were quickly placed in a 5 ml solution containing 2% TTC, and incubated at 37° C. for 30 minutes in the dark, during which the brain sections were flipped once every 5 minutes. With the TTC staining, the normal tissue would be rose red, and the infarcted tissue would be unstained and retained white. Each group of brain sections was arranged neatly, and photographed. The photos were processed by an image analysis system software and statistically analyzed. The infarction area of each brain section was calculated, and multiplied by the thickness of each brain section (2 mm). The products of the infarction area of individual brain section multiplied by the thickness were summed to obtain the cerebral infarction volume for each animal. The volumes were expressed as percentages accounting for the cerebral hemisphere to eliminate the effects of cerebral edema.

MCAO model rats [2] = assay: HE staining for histological changes in brains of MCAO rats; format: in vivo, rat; conditions: therapeutic and prophylactic administration, 10 mg/kg, 24 h after ischemia
Procedure: The rats in each group were decapitated at 24 h after ischemia, and the resultant brain was coronally sectioned near the optic chiasm with a thickness of about 4 mm. The sections were fixed with 10% formalin solution and dehydrated with alcohol with a concentration gradient from 70% to 100%. The sections were permeabilized twice in xylene, and embedded in paraffin. The paraffin block was carefully trimmed, and immobilized on a paraffin slicing machine, and sliced to sections with a thickness of 4 μm. The paraffin sections were completely unfolded, attached to a clean and dry glass slide, and stored in a refrigerator at 4° C. Conventional HE staining was performed, and the staining results were observed by light microscopy.

rats = assay: Acute toxicity test on rats; format: in vivo, rat; conditions: 200 mg/kg body weight
Procedure: Acute toxicity tests were performed on rats.

Molecule | Mean of infarction volume percentage (MCAO model rats [1]) | Mean of infarction volume percentage (MCAO model rats [1]; 1 mg/kg) [%] | Reduction of infarction volume percentage vs model group (MCAO model rats [1]; 1 mg/kg) [%] | Mean of infarction volume percentage (MCAO model rats [1]; 3 mg/kg) [%] | Reduction of infarction volume percentage vs model group (MCAO model rats [1]; 3 mg/kg) [%] | effect on cerebral infarction volume (MCAO model rats [1]; 3 mg/kg) | Mean of infarction volume percentage (MCAO model rats [1]; 10 mg/kg) [%] | Reduction of infarction volume percentage vs model group (MCAO model rats [1]; 10 mg/kg) [%] | reduction of cerebral infarction volume (MCAO model rats [1]; 10 mg/kg) | pathological changes of brain tissue (HE staining) (MCAO model rats [2]) | acute toxicity (rats)
YGRKKRRQRRRKLSSIESDV [NA-1, reference compound] | 38.56% | – | – | – | – | – | – | – | – | – | –
CC[C@H](C)[C@H](NC(=O)[C@H](CCC(=O)O)NC(=O)[C@@H](NC(=O)[C@H](CC(=O)O)NC(=O)[C@H](CC(C)C)NC(=O)[C@H](CC(C)C)NC(=O)[C@H](CCCCN)NC(=O)[C@H](CCC(=O)O)NC(=O)[C@H](Cc1ccc(O)cc1)NC(=O)[C@H](CCCNC(=N)N)NC(=O)[C@H](CCCNC(=N)N)NC(=O)[C@H](CCCNC(=N)N)NC(=O)[C@H](CCC(N)=O)NC(=O)[C@H](CCCNC(=N)N)NC(=O)[C@H](CCCNC(=N)N)NC(=O)[C@H](CCCCN)NC(=O)[C@H](CCCCN)NC(=O)[C@H](CCCNC(=N)N)NC(=O)CNC(=O)[C@@H](N)Cc1ccc(O)cc1)[C@@H](C)O)C(=O)O [P5] | 24.84% and 36.54% and 43.22% | 44.23 | 3.76 | 35.66 | 22.41 | desirably reduced the cerebral infarction volume | 19.54 | 57.48 | about 50% | significantly improved | no lethal effect and other obvious toxic side effects
YGRKKRRQRRRYEKLSSIESDV [YE-NA-1, reference compound] | 33.96% | – | – | – | – | – | – | – | – | – | –
